Measurements as given in article PMC8322648, “Brevibacillin 2V Exerts Its Bactericidal Activity via Binding to Lipid II and Permeabilizing Cellular Membranes” (Frontiers in Microbiology, 2021).

Legend:
S. aureus (MRSA) = test: Membrane permeability assay, concentration series (fluorescence microscopy); assay type: cell-based, Staphylococcus aureus; details: 15 min; for concentration needed to permeabilize virtually all cellular membranes: comparison of brevibacillin and brevibacillin 2V
Method: Staphylococcus aureus ATCC15975 (MRSA) was grown to an OD600 of 0.8. The culture was pelleted at 5,000 × g for 5 min and washed three times in 10 mm HEPES with 10 mm glucose (pH 7.2). After normalization of the cell density to an OD600 of 0.2 in 10 mm HEPES with 10 mm glucose (pH 7.2), a 2-fold MIC concentration of brevibacillins (4 μg/ml) or nisin (8 μg/ml) was added. At the same time, SYTO® 9 and propidium iodide (LIVE/DEAD Baclight Bacterial Viability Kit, Invitrogen) were added to the above cell suspensions. After incubation at room temperature for 15 min, peptides were removed and washed three times with 10 mm HEPES with 10 mm glucose (pH 7.2). Then, the cell suspensions were loaded on 1.5% agarose pads and analyzed by DeltaVision Elite microscope (Applied Precision; [Zhao and Kuipers, 2021]).
GraphPad Prism 7.0 was used to fit the data of time-killing assay, DiSC3(5) assay, fluorescence quenching assay, ITC assay, and CF Leakage assay in Figures 3–7. The fluorescence images (ratio of membrane permeabilized cells) were quantified by the software Adobe Photoshop 2021. The Kd values of brevibacillins to Lipid II were calculated using the Nano Analyze Software (Waters LLC). The statistical significance of the data was assessed using Duncan’s multiple range test with the software SPSS Statistics 26; values of p < 0.05 were considered to be statistically significant.
Figure 7 Brevibacillins disrupt membrane permeability without the need for Lipid II binding. (A), Cartoon schematic of the assay used to assess membrane permeability disruption of brevibacillins. (B), CF releases (%) vs. time graph showing the effects of adding brevibacillins to DOPC-LUVs with 0.1% Lipid II; peptide concentrations were 100 nm; a, when peptides were added; and b, when 20% Triton X-100 added. (C), CF releases (%) vs. time graph showing the effects of adding brevibacillins to LUVs of pure DOPC; peptide concentrations were 100 nm; a, when peptides were added; and b, when 20% Triton X-100 was added. (D), fluorescence microscopic images of S. aureus (MRSA) after have been treated by a series concentrations of brevibacillins and nisin for 15 min. (E), the ratio of membrane permeabilized cells that was quantified by Adobe Photoshop 2021; the data are representative of three independent experiments.
To investigate the in vivo membrane disruption capacity of brevibacillin and brevibacillin 2V, a membrane permeability assay was performed with a series of concentrations of antibiotics. Nisin was used as a control.

[1] = 31P solid-state NMR of Lipid II in liposomes; assay type: binding; details: combined ssNMR, CD and ITC assays
Method: Multi-lamellar vesicles of DOPC doped with 2 mol % Lys-Lipid II in buffer (20 mm HEPES, 100 mm NaCl, and pH = 8) were collected by centrifugation (60,000 × g) and loaded into 3.2 mm ssNMR rotors. For 3.2 mm rotors, we used 200 nmol of antibiotic with 100 nmol of Lipid II. The 1D ^31P ssNMR experiments were performed at 500 MHz (^1H frequency) magnetic field using 10 kHz magic angle spinning (MAS) at 270 K sample temperature.

[2] = Carboxyfluorescein leakage assay, LUVs of pure DOPC; details: peptide 100 nM; pure DOPC LUVs 5 μM; 25 mM Tris-HCl, 150 mM NaCl, pH 7.5; ex 492/em 515 nm
Method: LUVs that contain DOPC or DOPC plus 0.1% Lipid II were prepared for a carboxyfluorescein (CF) leakage assay. The lipids were dried by a nitrogen stream and followed under vacuum for 2 h. After that, the lipids were hydrated by adding 25 mm Tris-HCl, 150 mm NaCl, and pH 7.5 containing 50 mm CF. The suspensions were frozen and thawed 10 times, followed by extrusion through 200nm membrane filters (Whatman Nuclepore, Track-Etch Membranes) 10 times. The excess dye was removed by loading vesicles on a spin column (Sephadex G50) for 2 min at 500 × g. Subsequently, the vesicles were diluted to 5 μm, and the brevibacillins-induced release of CF from the vesicles was monitored by measuring the increase in fluorescence intensity. The maximum fluorescence was reached by adding 10 μl of 20% Triton X-100. A Cary Eclipse Fluorescence Spectrophotometer (Agilent, United States) was used to determine the changes of fluorescence signals, and the excitation wavelength and emission wavelength were adjusted to 492 nm and 515 nm, respectively.

[3] = ref Zhao et al., 2021; cited from earlier work
[4] = Isothermal titration calorimetry; assay type: binding; details: Figure 5; DOPC LUVs with 2 mol % Lipid II titrated into 50 μM peptide, 10 mM Tris-HCl, 100 mM NaCl, pH 8, 25°C
Method: LUVs containing Lipid II (2%, mol/mol) were prepared by mixing the appropriate volumes of Lipid II and DOPC stock solutions in CHCl3/MeOH (2:1, v/v). The lipid solutions were dried by a nitrogen stream and hydrated with 10 mm Tris-HCl, 100 mm NaCl, and pH 8 buffer to a lipid-phosphate concentration of ~ 20 mm. LUVs were obtained after 10 times freeze-thaw cycles followed by 10 rounds of extrusion through 200 nm membrane filters (Whatman Nuclepore, Track-Etch Membranes). The concentration of lipid-phosphate was determined as described ([Rouser et al., 1970]).
Isothermal titration calorimetry was performed with the Low Volume Nano ITC (Waters LLC, New Castle, DE, United States) to determine the interaction between LUVs and brevibacillins. Brevibacillins were diluted in a buffer (10 mm Tris-HCl, 100 mm NaCl, and pH 8) to a final concentration of 50 μm. Samples were degassed before use. The chamber was filled with 177 μl of the brevibacillins solutions, and the LUVs were titrated into the chamber at a rate of 2 μl/300 s with a stirring rate of 300 rpm. Experiments were performed at 25°C. Control experiments were performed with Lipid II-free LUVs. The Kd values of brevibacillins to Lipid II were calculated using the Nano Analyze Software (Waters LLC).

[5] = Pyrene-labeled Lipid II fluorescence quenching assay; assay type: binding; details: 50 μM DOPC LUVs with 0.5 mol % pyrene-labeled Lipid II, 20°C, ex 350 nm
Method: The effects of antibiotics on pyrene-labeled Lipid II were measured using 50 μm DOPC-based large unilamellar vesicles (LUVs) containing 0.5 mol % pyrene-labeled Lipid II ([Breukink et al., 2003]). Briefly, the LUVs were added to a quartz cuvette and titrated with nisin, brevibacillin, or brevibacillin 2V with stirring at 20°C. The fluorescence spectra were recorded between 360 and 600 nm (λex350 nm) using a Cary Eclipse Fluorescence Spectrophotometer (Agilent, United States).

Substance | membrane permeabilization at 100 nM (S. aureus (MRSA); 100 nM, versus untreated group) | concentration needed to permeabilize virtually all cellular membranes (S. aureus (MRSA)) | Lipid II binding site [1] | membrane disruption (CF leakage), LUVs lacking Lipid II [2] | rank order of calculated hydrophobicity [3] | Kd [4] | excimer fluorescence (about 490 nm) [5] | pyrene monomer fluorescence [5] | membrane permeabilization capacity, comparison (S. aureus (MRSA); 100 nM and 400 nM, ratio of membrane permeabilized cells, three independent experiments, p < 0.05)
Brevibacillin 2V | did not induce membrane permeabilization | a similar concentration of brevibacillin and brevibacillin 2V is needed | binds to the GlcNAc-MurNAc moiety and/or the pentapeptide of Lipid II | still caused rapid disruption of membrane | brevibacillin I > brevibacillin > brevibacillin V > brevibacillin 2V | 7.89 µM | no excimer fluorescence could be detected | decreased the monomer fluorescence | –
Brevibacillin | – | a similar concentration of brevibacillin and brevibacillin 2V is needed | – | still caused rapid disruption of membrane | brevibacillin I > brevibacillin > brevibacillin V > brevibacillin 2V | 0.869 µM | no excimer fluorescence could be detected | decreased the monomer fluorescence | significantly (p < 0.05) higher membrane permeabilization capacity than brevibacillin 2V
